Test results published in PubChem BioAssay (NCI).
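In this assay, cells in 96-well plates receive the compound at five concentrations for 48 hours. Endpoints are linearly interpolated between the surrounding concentrations. TGI: concentration producing complete growth inhibition.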

Key:
Experiment in all cases: growth of human tumour cells (NCI), 48 h
[1] = tested on: SK-MEL-2 melanoma
[2] = tested on: SK-MEL-5 melanoma
[3] = tested on: M14 melanoma
[4] = tested on: HCC-2998 colon
[5] = tested on: IGROV1 ovarian
[6] = tested on: NCI-H226 lung
[7] = tested on: SNB-19 CNS
[8] = tested on: MDA-N
[9] = tested on: PC-3 prostate
[10] = tested on: SNB-75 CNS
[11] = tested on: UACC-257 melanoma
[12] = tested on: MCF7 breast
[13] = tested on: SW-620 colon
[14] = tested on: TK-10 renal
[15] = tested on: HCT-15 colon
[16] = tested on: OVCAR-4 ovarian
[17] = tested on: RXF 393 renal
[18] = tested on: SK-MEL-28 melanoma
[19] = tested on: NCI-H522 lung
[20] = tested on: SF-268 CNS
[21] = tested on: SF-295 CNS
[22] = tested on: MDA-MB-231 breast
[23] = tested on: 786-0 renal
[24] = tested on: LOX IMVI melanoma
[25] = tested on: OVCAR-5 ovarian
[26] = tested on: ACHN renal
[27] = tested on: MDA-MB-435
[28] = tested on: BT-549 breast
[29] = tested on: MALME-3M melanoma
[30] = tested on: HT29 colon
[31] = tested on: NCI-H23 lung
[32] = tested on: UO-31 renal
[33] = tested on: NCI/ADR-RES ovarian
[34] = tested on: SR leukemia
[35] = tested on: HOP-92 NSCLC
[36] = tested on: EKVX NSCLC
[37] = tested on: A549 NSCLC
[38] = tested on: SF-539 CNS
[39] = tested on: K-562 leukemia
[40] = tested on: SK-OV-3 ovarian
[41] = tested on: COLO 205 colon
[42] = tested on: T-47D breast
[43] = tested on: CAKI-1 renal
[44] = tested on: U251 CNS
[45] = tested on: HS 578T breast
[46] = tested on: MOLT-4 leukemia
[47] = tested on: HOP-62 NSCLC
[48] = tested on: NCI-H460 lung
[49] = tested on: UACC-62 melanoma
[50] = tested on: KM12 colon
[51] = tested on: A498 renal
[52] = tested on: OVCAR-8 ovarian
[53] = tested on: OVCAR-3 ovarian
[54] = tested on: DU-145 prostate
[55] = tested on: SN12C renal
[56] = tested on: HCT-116 colon
[57] = tested on: RPMI-8226 leukemia
[58] = tested on: CCRF-CEM leukemia
[59] = tested on: HL-60(TB) leukemia

Measured: TGI

NC(=O)c1ncn2c(=O)n(CCl)nnc12
not listed: [59]
> 100 µM: all other assays above

COc1cccc2c1-c1c(OC)cccc1SS2
46.4 µM: [1] | [34]
46.8 µM: [44]
31.4 µM: [36]
64.5 µM: [19]
49.3 µM: [4]
41.6 µM: [5]
33.4 µM: [38]
72.6 µM: [52]
76.7 µM: [7]
72.8 µM: [31]
79.4 µM: [18]
33.5 µM: [37]
80 µM: [20]
8.15 µM: [8]
59.2 µM: [57]
90.5 µM: [16]
56.6 µM: [41]
51.1 µM: [14]
36.2 µM: [23] | [30]
36 µM: [35]
56.1 µM: [22]
27.4 µM: [51]
35.9 µM: [11]
15.1 µM: [27]
42.7 µM: [6]
40.4 µM: [56]
43.6 µM: [21]
47.2 µM: [13]
52 µM: [29]
33.3 µM: [15]
30.3 µM: [55]
48.7 µM: [53]
92.5 µM: [49]
26.5 µM: [2]
86.5 µM: [28]
43.8 µM: [48]
63.6 µM: [17]
40.9 µM: [25]
7.35 µM: [59]
23.5 µM: [24]
38.1 µM: [46]
not listed: [10] | [40] | [42] | [58]
> 100 µM: all other assays above

Cc1cc(Oc2cnc(=O)[nH]c2)cs1
not listed: [16] | [17] | [35]
> 100 µM: all other assays above

Cc1cc2c(c(C(=O)NCCC(=O)N[C@@H](C)C(=O)OCc3ccccc3)c1)Oc1c(cc(C)cc1C(=O)NCCC(=O)N[C@@H](C)C(=O)OCc1ccccc1)S2
not listed: [14] | [18] | [19] | [24] | [35] | [38] | [59]
> 100 µM: all other assays above
